Entries after “also recorded” stand apart in the source; their conditions may differ.
What was measured:
[1] = system: anti-androgenic activity; details: known compounds, background; cited from earlier work
[2] = system: liver; details: known compound, background; cited from earlier work
[3] = system: seminal vesicles, ventral prostate and dorsal prostates; test: anti-androgenic activity: inhibition of testosterone propionate-induced weight increase of secondary sex structures in castrated male rats, oral dosing; assay type: in vivo, rats (SD-JCL strain); details: for Percent inhibition: Dorsal prostate / Percent inhibition: Seminal vesicles / Percent inhibition: Ventral prostate / Weight of organs: Dorsal prostate / Weight of organs: Seminal vesicles / Weight of organs: Ventral prostate: 5 rats; for Weight of organs: Dorsal prostate / Weight of organs: Seminal vesicles / Weight of organs: Ventral prostate: average ± standard error
Procedure: The following is the assay data on the anti-androgenic activity of 6-methylandrosta-4,6-dien-3-one(the test compound), a compound obtainable by the method of this invention. Testing procedure: Male rats of the SD-JCL strain, 21 days of age (body weights 40-55 g.) are castrated and, beginning on the next day, a daily dose of the test compound is suspended in 0.5 ml. of aqueous solvent and orally administered via a gastric catheter once daily, every day excepting Sundays, for a total of 10 times (12 days). Simultaneously with the administration of the test compound, a daily dose of 0.15 mg. of testosterone propionate is dissolved in 0.2 ml. of sesame oil and subcutaneously injected into the dorsal region of the neck.
On the day following the last day of administration, the rats are exsanguinated under ether anaesthesia and the seminal vesicles, ventral prostate and dorsal prostates are weighed. The anti-androgenic potency of the test compound is determined as follows.
dosed with testosterone
- dosed with testosterone
(%) dosed with testosterone

[4] = test compound 9.6mg. × 10 oral + testosterone propionate 0.15mg. × 10 s.c.
[5] = test compound 38.4mg. × 10 oral + testosterone propionate 0.15mg. × 10 s.c.
[6] = testosterone propionate 0.15mg. × 10 s.c. alone

## C[C@]12CC[C@H]3[C@@H](CCC4=CC(=O)CC[C@@H]43)[C@@H]1C[C@H](C1CCCCC1)[C@@H]2O [16β-cyclohexyl-17β-hydroxyestr-4-en-3-one]
[1]
  effectiveness by oral administration: little effective by oral administration

## CC[C@H]1C[C@H]2[C@@H]3CCC4=CC(=O)CC[C@@H]4[C@H]3CC[C@]2(C)[C@H]1O [16β-ethyl-17β-hydroxyestr-4-en-3-one]
[1]
  effectiveness by oral administration: little effective by oral administration

## CCCCCC(=O)O[C@]1(C(C)=O)CC[C@H]2[C@@H]3CCC4=CC(=O)CC[C@@H]4[C@H]3CC[C@@]21C [17α-caproyloxy-19-norprogesterone]
[2]
  side effect: causes `fatty liver` as a side effect

## CC[C@H]1C[C@H]2[C@@H]3CCC4=CC(=O)CC[C@@H]4[C@H]3CC[C@]2(C)[C@H]1OC(C)=O [17β-acetyloxy-16β-ethylestr-4-en-3-one]
[1]
  effectiveness by oral administration: little effective by oral administration

## CC1=C[C@H]2[C@@H]3CCC[C@@]3(C)CC[C@@H]2[C@@]2(C)CCC(=O)C=C12 [test compound, 6-methylandrosta-4,6-dien-3-one]
[3]; oral, caused by testosterone propionate
  inhibition of weight increases of secondary sex structures / anti-androgenic activity (in words): significantly inhibits the weight increases of various secondary sex structures; also recorded: the degree of inhibition (percent inhibition) being proportional to the dosage; also recorded: potent anti-androgenic activity
[3]; [4]
  Percent inhibition: Dorsal prostate: 38%
  Percent inhibition: Seminal vesicles: 53%
  Percent inhibition: Ventral prostate: 34%
  Weight of organs: Dorsal prostate: 62 ± 3 mg
  Weight of organs: Seminal vesicles: 164 ± 15 mg
  Weight of organs: Ventral prostate: 100 ± 4 mg
[3]; [5]
  Percent inhibition: Dorsal prostate: 59%
  Percent inhibition: Seminal vesicles: 77%
  Percent inhibition: Ventral prostate: 53%
  Weight of organs: Dorsal prostate: 44 ± 2 mg
  Weight of organs: Seminal vesicles: 82 ± 5 mg
  Weight of organs: Ventral prostate: 74 ± 4 mg

## CCC(=O)O[C@H]1CC[C@H]2[C@@H]3CCC4=CC(=O)CC[C@]4(C)[C@H]3CC[C@]12C [testosterone propionate, reference compound]
[3]; [6]
  Weight of organs: Dorsal prostate: 96 ± 3 mg
  Weight of organs: Seminal vesicles: 337 ± 27 mg
  Weight of organs: Ventral prostate: 147 ± 7 mg
